pIC50: −log10 of the molar value. Where a SMILES comes first, the peptide text is derived from it. [ ]: non-standard residue; d: D form. The star is where a group is joined. Propanoyl(3-(4-F-phenyl)) = O=C(CCc1ccc(F)cc1)*; Acryloyl(3-(pyridin-3-yl)) = O=C(C=Cc1cccnc1)*; Propanoyl(3-(4-Cl-Ph)) = O=C(CCc1ccc(Cl)cc1)*; 2Naphthoyl(6-OH) = O=C(c1ccc2cc(O)ccc2c1)*; Hydrocinnamoyl(4-Me) = Cc1ccc(CCC(=O)*)cc1; Quinoline3carbonyl = O=C(c1cnc2ccccc2c1)*; X36 = O=C(C=Cc1ccc(OS(=O)(=O)O)cc1)*; X20 = CC(=O)Oc1ccc2cc(C(=O)*)ccc2c1; X22 = O=C(CCc1cccc(OS(=O)(=O)O)c1)*; Hydrocinnamoyl = O=C(CCc1ccccc1)*; X17 = COc1ccc(/C=C\C(=O)*)c(OC)c1; NMeF = CN[C@@H](Cc1ccccc1)C(=O)O; X10 = O=C(/C=C\c1ccc(Cl)cc1Cl)*; X14 = O=C(c1cc2cc(O)ccc2[nH]1)*; X2 = O=C(c1cc2cc(Cl)ccc2[nH]1)*; X31 = COc1ccc(/C=C\C(=O)*)cc1OC; X37 = O=C(C=Cc1c[nH]c2ccccc12)*; X7 = CN(C)c1ccc(/C=C\C(=O)*)cc1; X8 = COc1ccc2[nH]c(C(=O)*)cc2c1; X12 = O=C(c1cnc2cccc(O)c2c1)*; X11 = O=C(/C=C\c1ccc(O)cc1)*; X18 = O=C(c1cc2ccccc2[nH]1)*; X16 = O=C(/C=C\c1ccccc1O)*; X19 = O=C(/C=C\c1ccccc1)*; X27 = O=C(Cc1ccc(O)cc1)*; X5 = O=C(CCc1cccc(O)c1)*; Boc = CC(C)(C)OC(=O)*
Target: Gastrin/cholecystokinin type B receptor (Cavia porcellus)
Test: Inhibition of specific binding of [125I]BH-CCK-8 in guinea pig cortex

Compound	pIC50
CN(C(=O)[C@H](CC(=O)O)NC(=O)[C@H](CCCCNC(=O)c1ccc2cc(O)ccc2c1)NC(=O)[C@H](Cc1c[nH]c2ccccc12)NC(=O)OC(C)(C)C)[C@@H](Cc1ccccc1)C(N)=O (Boc-WK(2Naphthoyl(6-OH))D[NMeF]-NH2)	6.14
CN(C(=O)[C@H](CC(=O)O)NC(=O)[C@H](CCCCNC(=O)C=Cc1cccnc1)NC(=O)[C@H](Cc1c[nH]c2ccccc12)NC(=O)OC(C)(C)C)[C@@H](Cc1ccccc1)C(N)=O (Boc-WK(Acryloyl(3-(pyridin-3-yl)))D[NMeF]-NH2)	6.92
CC(C)(C)OC(=O)N[C@@H](Cc1c[nH]c2ccccc12)C(=O)N[C@@H](CCCCNC(=O)c1cnc2ccccc2c1)C(=O)N[C@@H](CC(=O)O)C(=O)N[C@@H](Cc1ccccc1)C(N)=O (Boc-WK(Quinoline3carbonyl)DF-NH2)	6.70
CC(C)(C)OC(=O)N[C@@H](Cc1c[nH]c2ccccc12)C(=O)N[C@@H](CCCCNC(=O)c1cc2cc(Cl)ccc2[nH]1)C(=O)N[C@@H](CC(=O)O)C(=O)N[C@@H](Cc1ccccc1)C(N)=O (Boc-WK(X2)DF-NH2)	5.28
COc1ccc2[nH]c(C(=O)NCCCC[C@H](NC(=O)[C@H](Cc3c[nH]c4ccccc34)NC(=O)OC(C)(C)C)C(=O)N[C@@H](CC(=O)O)C(=O)N[C@@H](Cc3ccccc3)C(N)=O)cc2c1 (Boc-WK(X8)DF-NH2)	5.52
CC(C)(C)OC(=O)N[C@@H](Cc1c[nH]c2ccccc12)C(=O)N[C@@H](CCCCNC(=O)c1cnc2cccc(O)c2c1)C(=O)N[C@@H](CC(=O)O)C(=O)N[C@@H](Cc1ccccc1)C(N)=O (Boc-WK(X12)DF-NH2)	6.17
CC(C)(C)OC(=O)N[C@@H](Cc1c[nH]c2ccccc12)C(=O)N[C@@H](CCCCNC(=O)c1cc2cc(O)ccc2[nH]1)C(=O)N[C@@H](CC(=O)O)C(=O)N[C@@H](Cc1ccccc1)C(N)=O (Boc-WK(X14)DF-NH2)	6.08
CC(C)(C)OC(=O)N[C@@H](Cc1c[nH]c2ccccc12)C(=O)N[C@@H](CCCCNC(=O)c1cc2ccccc2[nH]1)C(=O)N[C@@H](CC(=O)O)C(=O)N[C@@H](Cc1ccccc1)C(N)=O (Boc-WK(X18)DF-NH2)	5.68
CC(=O)Oc1ccc2cc(C(=O)NCCCC[C@H](NC(=O)[C@H](Cc3c[nH]c4ccccc34)NC(=O)OC(C)(C)C)C(=O)N[C@@H](CC(=O)O)C(=O)N[C@@H](Cc3ccccc3)C(N)=O)ccc2c1 (Boc-WK(X20)DF-NH2)	5.85
CN(C(=O)[C@H](CC(=O)O)NC(=O)[C@H](CCCCNC(=O)C=Cc1ccc(OS(=O)(=O)O)cc1)NC(=O)[C@H](Cc1c[nH]c2ccccc12)NC(=O)OC(C)(C)C)[C@@H](Cc1ccccc1)C(N)=O (Boc-WK(X36)D[NMeF]-NH2)	6.00
CC(C)(C)OC(=O)N[C@@H](Cc1c[nH]c2ccccc12)C(=O)N[C@@H](CCCCNC(=O)C=Cc1c[nH]c2ccccc12)C(=O)N[C@@H](CC(=O)O)C(=O)N[C@@H](Cc1ccccc1)C(N)=O (Boc-WK(X37)DF-NH2)	5.33
Cc1ccc(CCC(=O)NCCCC[C@H](NC(=O)[C@H](Cc2c[nH]c3ccccc23)NC(=O)OC(C)(C)C)C(=O)N[C@@H](CC(=O)O)C(=O)N[C@@H](Cc2ccccc2)C(N)=O)cc1 [3-[2-[2-tert-Butoxycarbonylamino-3-(1H-indol-3-yl)-propionylamino]-6-(3-p-tolyl-propionylamino)-hexanoylamino]-N-(1-carbamoyl-2-phenyl-ethyl)-succinamic acid] (Boc-WK(Hydrocinnamoyl(4-Me))DF-NH2)	5.00
CC(C)(C)OC(=O)N[C@@H](Cc1c[nH]c2ccccc12)C(=O)N[C@@H](CCCCNC(=O)/C=C\c1ccccc1)C(=O)N[C@@H](CC(=O)O)C(=O)N[C@@H](Cc1ccccc1)C(N)=O [3-[2-[2-tert-Butoxycarbonylamino-3-(1H-indol-3-yl)-propionylamino]-6-(3-phenyl-acryloylamino)-hexanoylamino]-N-(1-carbamoyl-2-phenyl-ethyl)-succinamic acid.AcOH] (Boc-WK(X19)DF-NH2)	5.74
CC(C)(C)OC(=O)N[C@@H](Cc1c[nH]c2ccccc12)C(=O)N[C@@H](CCCCNC(=O)CCc1ccccc1)C(=O)N[C@@H](CC(=O)O)C(=O)N[C@@H](Cc1ccccc1)C(N)=O [3-[2-[2-tert-Butoxycarbonylamino-3-(1H-indol-3-yl)-propionylamino]-6-(3-phenyl-propionylamino)-hexanoylamino]-N-(1-carbamoyl-2-phenyl-ethyl)-succinamic acid.2AcOH] (Boc-WK(Hydrocinnamoyl)DF-NH2)	5.23
CC(C)(C)OC(=O)N[C@@H](Cc1c[nH]c2ccccc12)C(=O)N[C@@H](CCCCNC(=O)Cc1ccc(O)cc1)C(=O)N[C@@H](CC(=O)O)C(=O)N[C@@H](Cc1ccccc1)C(N)=O [3-{2-[2-tert-Butoxycarbonylamino-3-(1H-indol-3-yl)-propionylamino]-6-[2-(4-hydroxy-phenyl)-acetylamino]-hexanoylamino}-N-(1-carbamoyl-2-phenyl-ethyl)-succinamic acid; hydrate] (Boc-WK(X27)DF-NH2)	6.32
CC(C)(C)OC(=O)N[C@@H](Cc1c[nH]c2ccccc12)C(=O)N[C@@H](CCCCNC(=O)/C=C\c1ccc(Cl)cc1Cl)C(=O)N[C@@H](CC(=O)O)C(=O)N[C@@H](Cc1ccccc1)C(N)=O [3-{2-[2-tert-Butoxycarbonylamino-3-(1H-indol-3-yl)-propionylamino]-6-[3-(2,4-dichloro-phenyl)-acryloylamino]-hexanoylamino}-N-(1-carbamoyl-2-phenyl-ethyl)-succinamic acid; hydrate] (Boc-WK(X10)DF-NH2)	5.30
COc1ccc(/C=C\C(=O)NCCCC[C@H](NC(=O)[C@H](Cc2c[nH]c3ccccc23)NC(=O)OC(C)(C)C)C(=O)N[C@@H](CC(=O)O)C(=O)N[C@@H](Cc2ccccc2)C(N)=O)c(OC)c1 [3-{2-[2-tert-Butoxycarbonylamino-3-(1H-indol-3-yl)-propionylamino]-6-[3-(2,4-dimethoxy-phenyl)-acryloylamino]-hexanoylamino}-N-(1-carbamoyl-2-phenyl-ethyl)-succinamic acid; hydrate] (Boc-WK(X17)DF-NH2)	5.52
CC(C)(C)OC(=O)N[C@@H](Cc1c[nH]c2ccccc12)C(=O)N[C@@H](CCCCNC(=O)/C=C\c1ccccc1O)C(=O)N[C@@H](CC(=O)O)C(=O)N[C@@H](Cc1ccccc1)C(N)=O [3-{2-[2-tert-Butoxycarbonylamino-3-(1H-indol-3-yl)-propionylamino]-6-[3-(2-hydroxy-phenyl)-acryloylamino]-hexanoylamino}-N-(1-carbamoyl-2-phenyl-ethyl)-succinamic acid; hydrate] (Boc-WK(X16)DF-NH2)	6.68
COc1ccc(/C=C\C(=O)NCCCC[C@H](NC(=O)[C@H](Cc2c[nH]c3ccccc23)NC(=O)OC(C)(C)C)C(=O)N[C@@H](CC(=O)O)C(=O)N[C@@H](Cc2ccccc2)C(N)=O)cc1OC [3-{2-[2-tert-Butoxycarbonylamino-3-(1H-indol-3-yl)-propionylamino]-6-[3-(3,4-dimethoxy-phenyl)-acryloylamino]-hexanoylamino}-N-(1-carbamoyl-2-phenyl-ethyl)-succinamic acid; hydrate] (Boc-WK(X31)DF-NH2)	5.40
CC(C)(C)OC(=O)N[C@@H](Cc1c[nH]c2ccccc12)C(=O)N[C@@H](CCCCNC(=O)CCc1cccc(O)c1)C(=O)N[C@@H](CC(=O)O)C(=O)N[C@@H](Cc1ccccc1)C(N)=O [3-{2-[2-tert-Butoxycarbonylamino-3-(1H-indol-3-yl)-propionylamino]-6-[3-(3-hydroxy-phenyl)-propionylamino]-hexanoylamino}-N-(1-carbamoyl-2-phenyl-ethyl)-succinamic acid; hydarte] (Boc-WK(X5)DF-NH2)	5.52
CC(C)(C)OC(=O)N[C@@H](Cc1c[nH]c2ccccc12)C(=O)N[C@@H](CCCCNC(=O)CCc1cccc(OS(=O)(=O)O)c1)C(=O)N[C@@H](CC(=O)O)C(=O)N[C@@H](Cc1ccccc1)C(N)=O [3-{2-[2-tert-Butoxycarbonylamino-3-(1H-indol-3-yl)-propionylamino]-6-[3-(3-sulfooxy-phenyl)-propionylamino]-hexanoylamino}-N-(1-carbamoyl-2-phenyl-ethyl)-succinamic acid; NH40H.hydrate] (Boc-WK(X22)DF-NH2)	5.00
CC(C)(C)OC(=O)N[C@@H](Cc1c[nH]c2ccccc12)C(=O)N[C@@H](CCCCNC(=O)CCc1ccc(Cl)cc1)C(=O)N[C@@H](CC(=O)O)C(=O)N[C@@H](Cc1ccccc1)C(N)=O [3-{2-[2-tert-Butoxycarbonylamino-3-(1H-indol-3-yl)-propionylamino]-6-[3-(4-chloro-phenyl)-propionylamino]-hexanoylamino}-N-(1-carbamoyl-2-phenyl-ethyl)-succinamic acid; hydrate] (Boc-WK(Propanoyl(3-(4-Cl-Ph)))DF-NH2)	5.15
CN(C)c1ccc(/C=C\C(=O)NCCCC[C@H](NC(=O)[C@H](Cc2c[nH]c3ccccc23)NC(=O)OC(C)(C)C)C(=O)N[C@@H](CC(=O)O)C(=O)N[C@@H](Cc2ccccc2)C(N)=O)cc1 [3-{2-[2-tert-Butoxycarbonylamino-3-(1H-indol-3-yl)-propionylamino]-6-[3-(4-dimethylamino-phenyl)-acryloylamino]-hexanoylamino}-N-(1-carbamoyl-2-phenyl-ethyl)-succinamic acid; hydrate] (Boc-WK(X7)DF-NH2)	5.68
CC(C)(C)OC(=O)N[C@@H](Cc1c[nH]c2ccccc12)C(=O)N[C@@H](CCCCNC(=O)CCc1ccc(F)cc1)C(=O)N[C@@H](CC(=O)O)C(=O)N[C@@H](Cc1ccccc1)C(N)=O [3-{2-[2-tert-Butoxycarbonylamino-3-(1H-indol-3-yl)-propionylamino]-6-[3-(4-fluoro-phenyl)-propionylamino]-hexanoylamino}-N-(1-carbamoyl-2-phenyl-ethyl)-succinamic acid; hydrate] (Boc-WK(Propanoyl(3-(4-F-phenyl)))DF-NH2)	5.00
CC(C)(C)OC(=O)N[C@@H](Cc1c[nH]c2ccccc12)C(=O)N[C@@H](CCCCNC(=O)/C=C\c1ccc(O)cc1)C(=O)N[C@@H](CC(=O)O)C(=O)N[C@@H](Cc1ccccc1)C(N)=O [3-{2-[2-tert-Butoxycarbonylamino-3-(1H-indol-3-yl)-propionylamino]-6-[3-(4-hydroxy-phenyl)-acryloylamino]-hexanoylamino}-N-(1-carbamoyl-2-phenyl-ethyl)-succinamic acid] (Boc-WK(X11)DF-NH2)	6.14

— BindingDB's records for doi:10.1021/jm00089a010 (Abbott Laboratories, 1992)
